Reference: PubChem BioAssay (NCI)
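Where inhibition never reached the appropriate level, the endpoint shown equals the highest concentration tested. Otherwise, values were interpolated linearly from a five-concentration, 48-hour dose response in 96-well plates. GI50 = concentration required for 50% inhibition of growth. TGI denotes the concentration required for complete inhibition of growth.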

How the values were obtained:
Assay in all cases: NCI anticancer screen, dose series, 48 h
[1] = system: HOP-92 NSCLC
[2] = system: SNB-19 CNS
[3] = system: NCI-H522 lung
[4] = system: TK-10 renal
[5] = system: DLD-1 colon
[6] = system: M19-MEL melanoma
[7] = system: SK-MEL-2 melanoma
[8] = system: 786-0 renal
[9] = system: IGROV1 ovarian
[10] = system: MCF7 breast

OCCN(CCO)c1cccc(N(CCO)CCO)c1
TGI [1]: > 100 µM
TGI [2]: > 100 µM
TGI [3]: > 100 µM
TGI [4]: > 100 µM
TGI [5]: > 100 µM
TGI [6]: > 100 µM
TGI [7]: > 100 µM
TGI [8]: > 100 µM

COc1ccccc1/C=C1\CCC(CNc2ccc(Cl)cc2)C1=O (stereo unspecified)
TGI [1]: 30.6 µM
TGI [2]: 25 µM
TGI [3]: 4.45 µM
TGI [9]: 22.8 µM
TGI [4]: 18.6 µM
TGI [5]: 17.5 µM
TGI [6]: 33.1 µM
TGI [7]: 26.7 µM
TGI [8]: 22.2 µM

Cn1cc(NC(=O)c2cc(NC(=O)Nc3cc(C(=O)Nc4cc(C(=O)NCCC(=N)N)n(C)c4)n(C)c3)cn2C)cc1C(=O)NCCC(=N)N
TGI [1]: > 100 µM
TGI [2]: > 100 µM
TGI [9]: 68.7 µM
TGI [4]: 54.7 µM
TGI [5]: > 100 µM
TGI [6]: 83.1 µM
TGI [8]: 38.1 µM

COc1cc(N=Nc2ccccc2)cc(/C=N\[N-]C(N)=S)c1[O-].COc1cc(N=Nc2ccccc2)cc(/C=N\[N-]C(N)=S)c1[O-].[Fe+4]
GI50 [1]: > 100 µM
TGI [1]: > 100 µM
GI50 [2]: 44.4 µM
TGI [2]: > 100 µM
GI50 [9]: 29.1 µM
TGI [9]: > 100 µM
GI50 [4]: 48.1 µM
TGI [4]: > 100 µM
GI50 [5]: 18.5 µM
TGI [5]: > 100 µM
GI50 [6]: 16.8 µM
TGI [6]: 75.9 µM
GI50 [7]: 7.72 µM
TGI [7]: 50.4 µM
GI50 [8]: 36.2 µM
TGI [8]: > 100 µM

N#CCCN(CCC#N)c1ccc(/C=C2\N=C(COc3ccc(Cl)cc3Cl)OC2=O)cc1
TGI [2]: > 100 µM
TGI [3]: > 100 µM
TGI [9]: > 100 µM
TGI [4]: > 100 µM
TGI [5]: > 100 µM
TGI [6]: > 100 µM
TGI [7]: > 100 µM
TGI [8]: > 100 µM

Cc1ccc(C(=O)O/N=C2/CCCCC2CN(C)C)cc1 (stereo unspecified)
TGI [1]: > 100 µM
TGI [3]: > 100 µM
TGI [9]: > 100 µM
TGI [4]: > 100 µM
TGI [5]: > 100 µM
TGI [6]: > 100 µM
TGI [7]: > 100 µM
TGI [8]: > 100 µM

Oc1ccc2occ3c2c1CCC3
TGI [1]: 80.1 µM
TGI [2]: > 100 µM
TGI [9]: > 100 µM
TGI [4]: > 100 µM
TGI [5]: > 100 µM
TGI [6]: > 100 µM
TGI [8]: > 100 µM

O=C(CC1(O)C(=O)Nc2ccc(Br)cc21)c1ccc(Cl)cc1 (stereo unspecified)
TGI [1]: 87.6 µM
TGI [2]: > 100 µM
TGI [3]: > 100 µM
TGI [9]: > 100 µM
TGI [4]: > 100 µM
TGI [5]: > 100 µM
TGI [7]: > 100 µM
TGI [8]: > 100 µM

COc1ccc(S(=O)(=O)N/N=C/CN2C(=O)c3ccccc3C2=O)cc1OC
TGI [2]: > 100 µM
TGI [3]: > 100 µM
TGI [9]: > 100 µM
TGI [5]: > 100 µM
TGI [6]: > 100 µM
TGI [7]: > 100 µM
TGI [8]: > 100 µM

CC1CCC2(NC1)OC1CC3[C@@H]4CC=C5C=CCC[C@]5(C)C4CC[C@]3(C)C1C2C (stereo partly specified)
TGI [1]: 61.8 µM
TGI [2]: > 100 µM
TGI [9]: > 100 µM
TGI [4]: 35.3 µM
TGI [5]: 58.2 µM
TGI [6]: > 100 µM
TGI [7]: 35.2 µM
TGI [8]: 35.5 µM

CCN(CC)c1ccc(N=C2C=CC(=O)c3ncccc32)c(C)c1
TGI [1]: 19.7 µM
TGI [2]: 29.8 µM
TGI [9]: 21 µM
TGI [4]: 29.8 µM
TGI [5]: 12 µM
TGI [6]: 22.6 µM
TGI [7]: 29 µM
TGI [8]: 16.6 µM

Cn1c(=O)c(Oc2cccc(F)c2)cc2cnc(NC3CCOCC3)nc21
GI50 [1]: 4.47 µM
TGI [1]: 24.5 µM
GI50 [2]: > 25 µM
TGI [2]: > 25 µM
GI50 [3]: > 25 µM
TGI [3]: > 25 µM
GI50 [9]: 24.8 µM
TGI [9]: > 25 µM
GI50 [4]: > 22 µM
TGI [4]: > 25 µM
GI50 [10]: > 25 µM
TGI [10]: > 25 µM
GI50 [7]: > 25 µM
TGI [7]: > 25 µM
GI50 [8]: > 25 µM
TGI [8]: > 25 µM

O=S(=O)([O-])[O-].[Cl-].[NH2-].[NH2-].[NH2-].[NH2-].[Ru+3].c1ccc(-c2cccnc2)cc1
GI50 [1]: > 100 µM
TGI [1]: > 100 µM
GI50 [3]: > 100 µM
TGI [3]: > 100 µM
GI50 [9]: > 100 µM
TGI [9]: > 100 µM
GI50 [4]: > 100 µM
TGI [4]: > 100 µM
GI50 [5]: > 100 µM
TGI [5]: > 100 µM
GI50 [7]: > 100 µM
TGI [7]: > 100 µM
GI50 [8]: > 100 µM
TGI [8]: > 100 µM

Cc1cc(=O)c2cc(N=Cc3ccc([N+](=O)[O-])o3)ccc2o1
TGI [1]: > 100 µM
TGI [2]: > 100 µM
TGI [3]: > 100 µM
TGI [9]: > 100 µM
TGI [4]: > 100 µM
TGI [10]: > 100 µM
TGI [7]: > 100 µM
TGI [8]: > 100 µM

CN(C)c1ccc(/C=C/C(=O)C(C)(C)C)cc1Br
TGI [2]: > 100 µM
TGI [3]: 31.9 µM
TGI [9]: > 100 µM
TGI [4]: 87.3 µM
TGI [5]: 43.9 µM
TGI [6]: 50.9 µM
TGI [7]: 36.7 µM
TGI [8]: 59 µM

CC1CCc2c(sc3ncnc(N/N=C/c4ccc(Cl)c(Cl)c4)c23)C1 (stereo unspecified)
TGI [2]: 74.3 µM
TGI [3]: 21 µM
TGI [9]: > 100 µM
TGI [4]: > 100 µM
TGI [5]: > 100 µM
TGI [6]: 96.2 µM
TGI [7]: > 100 µM
TGI [8]: 55.8 µM

NC1C2C(CC(=O)O)OCC=C3CN4CCC1(C(=O)C(=O)O)C4CC32 (stereo unspecified)
TGI [1]: > 100 µM
TGI [2]: > 100 µM
TGI [3]: > 100 µM
TGI [9]: > 100 µM
TGI [4]: > 100 µM
TGI [10]: > 100 µM
TGI [7]: > 100 µM
TGI [8]: > 100 µM

CCc1ccc(-c2ccc(=O)n(-c3ccc(S(N)(=O)=O)cc3)n2)cc1
GI50 [1]: 5.55 µM
TGI [1]: 43.1 µM
GI50 [2]: 5.21 µM
TGI [2]: 40.1 µM
GI50 [3]: 0.182 µM
TGI [3]: 4.18 µM
GI50 [9]: 3.32 µM
TGI [9]: > 77.6 µM
GI50 [4]: 13.2 µM
TGI [4]: 38.3 µM
GI50 [10]: 1.46 µM
TGI [10]: > 43.5 µM
GI50 [7]: 5.04 µM
TGI [7]: 38.9 µM
GI50 [8]: 11.7 µM
TGI [8]: > 79.8 µM

CN(C)C(=S)NN=C(c1ccccn1)c1ccccn1
TGI [1]: > 86.6 µM
GI50 [2]: 3.13 µM
TGI [2]: > 100 µM
GI50 [3]: 0.124 µM
TGI [3]: 19.1 µM
GI50 [9]: < 0.01 µM
TGI [9]: 21.8 µM
GI50 [4]: 0.183 µM
TGI [4]: 16.5 µM
GI50 [10]: < 0.01 µM
TGI [10]: > 47.4 µM
GI50 [7]: 0.106 µM
TGI [7]: 4.2 µM
GI50 [8]: < 0.0232 µM
TGI [8]: 1.26 µM

NC1CCCCC1N.O=C([O-])P(=O)([O-])[O-].[Na+].[Pt+4] (stereo unspecified)
GI50 [2]: > 100 µM
TGI [2]: > 100 µM
GI50 [9]: > 100 µM
TGI [9]: > 100 µM
GI50 [4]: > 100 µM
TGI [4]: > 100 µM
GI50 [5]: > 100 µM
TGI [5]: > 100 µM
GI50 [6]: 85.1 µM
TGI [6]: > 100 µM
GI50 [8]: > 100 µM
TGI [8]: > 100 µM

CCN(CC)CC(=O)/C=C/c1ccc(C)cc1
TGI [1]: 92.4 µM
TGI [2]: > 100 µM
TGI [9]: 40.4 µM
TGI [4]: 74.8 µM
TGI [5]: 59.6 µM
TGI [6]: 32.7 µM
TGI [8]: 34.4 µM
